According to patent US20060069132A1, “Azolecarboxamide herbicides” (priority 2004, published 2006):
Read-outs that look alike come from different tables or passages of the source.

Assays:
corn = experiment: Test B pre-/postemergence herbicide test; type: in vivo, Zea mays; details: Zea mays
In short: (§1)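 Evaluation is visual, comparing treated with control plants on a scale where 0 means no effect and 100 means full control. Treatments were preemergence, or postemergence on seedlings 2–18 cm tall, and held 13–15 days in the greenhouse.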

lambsquarters = experiment: Test B pre-/postemergence herbicide test; type: in vivo, Chenopodium album; details: Chenopodium album, 336 h; for pest or weed control at 125 g/ha: 125 g ai/ha; for pest or weed control at 500 g/ha: 500 g ai/ha
In short: as §1

ducksalad = experiment: Test B flooded paddy test; type: in vivo, Heteranthera limosa; details: Heteranthera limosa, 336 h, 1000 g ai/ha, visual rating, scale 0 to 100 (0 no effect, 100 complete control), 13 to 15 days, read-out: Ducksalad plant response rating
In short: (§2)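 Read-out: visual comparison with controls, scored 0 to 100, where 100 means complete control and 0 no effect. Formulated chemicals were applied postemergence to plants 2–18 cm tall (1- to 4-leaf), or to flooded-paddy plants at the 2-leaf stage, then held 13 to 15 days under glass.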

pigweed = experiment: Test B pre-/postemergence herbicide test; type: in vivo, Amaranthus retroflexus; details: Amaranthus retroflexus, 336 h; for pest or weed control at 125 g/ha: 125 g ai/ha; for pest or weed control at 500 g/ha: 500 g ai/ha
In short: as §1

large crabgrass = experiment: Test B pre-/postemergence herbicide test; type: in vivo, Digitaria sanguinalis; details: Digitaria sanguinalis; for pest or weed control at 125 g/ha: 125 g ai/ha; for pest or weed control at 500 g/ha: 500 g ai/ha
In short: as §1

giant foxtail = experiment: Test B pre-/postemergence herbicide test; type: in vivo, Setaria faberi; details: Setaria faberi, 336 h; for pest or weed control at 125 g/ha: 125 g ai/ha; for pest or weed control at 500 g/ha: 500 g ai/ha
In short: as §1

[1] = test system: small flower umbrella sedge; experiment: Test B flooded paddy test; type: in vivo, Cyperus difformis; details: Cyperus difformis, 336 h, 1000 g ai/ha, visual rating, scale 0 to 100 (0 no effect, 100 complete control), 13 to 15 days, read-out: Sedge, Umbrella plant response rating
In short: as §2

rice = experiment: Test B flooded paddy test; type: in vivo, Oryza sativa; details: Oryza sativa, 336 h, 1000 g ai/ha, visual rating, scale 0 to 100 (0 no effect, 100 complete control), 13 to 15 days, read-out: Rice plant response rating
In short: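 Each value is a visual 0–100 response rating taken against controls 13 to 15 days after treatment in the greenhouse. Plants received formulated chemical postemergence at the 1- to 4-leaf stage or, in flooded paddy, at the 2-leaf stage.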

cocklebur = experiment: Test B pre-/postemergence herbicide test; type: in vivo, Xanthium strumarium; details: Xanthium strumarium; for pest or weed control at 125 g/ha: 125 g ai/ha; for pest or weed control at 500 g/ha: 500 g ai/ha
In short: (§3)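 Pre: seeds sown, then sprayed. Post: 1–4-leaf plants (2–18 cm) sprayed at the same time. Paddy: flooded, treated at 2-leaf stage. Formulation: non-phytotoxic solvent with surfactant. Greenhouse 13–15 days; visual 0–100 score relative to controls.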

wheat = experiment: Test B postemergence herbicide test; type: in vivo, Triticum aestivum; details: Triticum aestivum, post-emergence, 336 h, postemergence, 500 g ai/ha; visual rating, scale 0 (no effect) to 100 (complete control); read-out: Wheat plant response rating
In short: (§4)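 Scale 0–100: zero equals no visible effect, 100 complete control, judged by eye relative to controls. Timing: 13 to 15 days in greenhouse post-treatment. Growth stage at spraying: two leaves (paddy) or one to four leaves, 2–18 cm (postemergence).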

barnyardgrass = experiment: Test B pre-/postemergence herbicide test; type: in vivo, Echinochloa crus-galli; details: Echinochloa crus-galli; for pest or weed control at 125 g/ha: 125 g ai/ha; for pest or weed control at 500 g/ha: 500 g ai/ha
In short: as §3

Surinam grass = experiment: Test B pre-/postemergence herbicide test; type: in vivo, Urochloa decumbens; details: Urochloa decumbens; for pest or weed control at 125 g/ha: 125 g ai/ha; for pest or weed control at 500 g/ha: 500 g ai/ha
In short: as §1

wild oat = experiment: Test B postemergence herbicide test; type: in vivo, Avena fatua; details: Avena fatua, post-emergence, 336 h, postemergence, visual rating, scale 0 (no effect) to 100 (complete control), read-out: Oat, Wild plant response rating
In short: as §4

velvetleaf = experiment: Test B pre-/postemergence herbicide test; type: in vivo, Abutilon theophrasti; details: Abutilon theophrasti, 336 h; for pest or weed control at 125 g/ha: 125 g ai/ha; for pest or weed control at 500 g/ha: 500 g ai/ha
In short: as §1

blackgrass = experiment: Test B postemergence herbicide test; type: in vivo, Alopecurus myosuroides; details: Alopecurus myosuroides, post-emergence, 336 h, postemergence, visual rating, scale 0 (no effect) to 100 (complete control), read-out: Blackgrass plant response rating
In short: as §2

[2] = post-emergence, postemergence, visual rating, scale 0 (no effect) to 100 (complete control), read-out: Lambsquarters plant response rating
[3] = post-emergence, postemergence, visual rating, scale 0 (no effect) to 100 (complete control), read-out: Pigweed plant response rating
[4] = post-emergence, postemergence, visual rating, scale 0 (no effect) to 100 (complete control), read-out: Crabgrass, Large plant response rating
[5] = post-emergence, postemergence, visual rating, scale 0 (no effect) to 100 (complete control), read-out: Foxtail, Giant plant response rating
[6] = post-emergence, postemergence, visual rating, scale 0 (no effect) to 100 (complete control), read-out: Cocklebur plant response rating
[7] = post-emergence, postemergence, visual rating, scale 0 (no effect) to 100 (complete control), read-out: Barnyardgrass plant response rating
[8] = post-emergence, postemergence, visual rating, scale 0 (no effect) to 100 (complete control), read-out: Surinam Grass plant response rating
[9] = post-emergence, postemergence, visual rating, scale 0 (no effect) to 100 (complete control), read-out: Velvetleaf plant response rating

CCn1nc(C(C)(C)C)cc1C(=O)Nc1cccc(C(=O)OC)n1 [Compound 143, methyl 6-[[[3-(1,1-dimethylethyl)-1-ethyl-1H-pyrazol-5-yl]carbonyl]amino]-2-pyridinecarboxylate]
plant injury at 125 g/ha (corn; post-emergence, postemergence, 125 g ai/ha, visual rating, scale 0 (no effect) to 100 (complete control), read-out: Corn plant response rating): 0%
plant injury at 500 g/ha (corn; post-emergence, postemergence, 500 g ai/ha, visual rating, scale 0 (no effect) to 100 (complete control), read-out: Corn plant response rating): 10%
Corn plant response rating (crop injury, 0 = no effect, 100 = complete kill) at 500 g/ha (corn; pre-emergence, 500 g ai/ha, visual rating 0-100, 0 no effect, 100 complete control): 0%
Corn plant response rating (crop injury, 0 = no effect, 100 = complete kill) at 125 g/ha (corn; pre-emergence, preemergence, 125 g ai/ha, 0 to 100 scale, 0 is no effect, 100 is complete control): 0%
pest or weed control at 125 g/ha (lambsquarters; [2]): 0%
pest or weed control at 500 g/ha (lambsquarters; [2]): 20%
pest or weed control at 500 g/ha (lambsquarters; pre-emergence, visual rating 0-100, 0 no effect, 100 complete control, read-out: Plant response rating, Lambsquarters): 0%
pest or weed control at 125 g/ha (lambsquarters; pre-emergence, preemergence, 0 to 100 scale, 0 is no effect, 100 is complete control, read-out: Plant response rating, Lambsquarters): 0%
pest or weed control at 1000 g/ha (ducksalad): 0%
pest or weed control at 125 g/ha (pigweed; [3]): 0%
pest or weed control at 500 g/ha (pigweed; [3]): 20%
pest or weed control at 500 g/ha (pigweed; pre-emergence, visual rating 0-100, 0 no effect, 100 complete control, read-out: Plant response rating, Pigweed): 0%
pest or weed control at 125 g/ha (pigweed; pre-emergence, preemergence, 0 to 100 scale, 0 is no effect, 100 is complete control, read-out: Plant response rating, Pigweed): 0%
pest or weed control at 125 g/ha (large crabgrass; [4]): 0%
pest or weed control at 500 g/ha (large crabgrass; [4]): 0%
pest or weed control at 500 g/ha (large crabgrass; pre-emergence, visual rating 0-100, 0 no effect, 100 complete control, read-out: Plant response rating, Crabgrass, Large): 0%
pest or weed control at 125 g/ha (large crabgrass; pre-emergence, preemergence, 0 to 100 scale, 0 is no effect, 100 is complete control, read-out: Plant response rating, Crabgrass, Large): 0%
pest or weed control at 125 g/ha (giant foxtail; [5]): 0%
pest or weed control at 500 g/ha (giant foxtail; [5]): 0%
pest or weed control at 500 g/ha (giant foxtail; pre-emergence, visual rating 0-100, 0 no effect, 100 complete control, read-out: Plant response rating, Foxtail, Giant): 0%
pest or weed control at 125 g/ha (giant foxtail; pre-emergence, preemergence, 0 to 100 scale, 0 is no effect, 100 is complete control, read-out: Plant response rating, Foxtail, Giant): 0%
pest or weed control at 1000 g/ha [1]: 0%
plant injury at 1000 g/ha (rice): 0%
pest or weed control at 125 g/ha (cocklebur; [6]): 0%
pest or weed control at 500 g/ha (cocklebur; [6]): 0%
pest or weed control at 500 g/ha (cocklebur; pre-emergence, visual rating 0-100, 0 no effect, 100 complete control, read-out: Plant response rating, Cocklebur): 0%
pest or weed control at 125 g/ha (cocklebur; pre-emergence, preemergence, 0 to 100 scale, 0 is no effect, 100 is complete control, read-out: Plant response rating, Cocklebur): 0%
plant injury at 500 g/ha (wheat): 0%
pest or weed control at 125 g/ha (barnyardgrass; [7]): 0%
pest or weed control at 500 g/ha (barnyardgrass; [7]): 0%
pest or weed control at 500 g/ha (barnyardgrass; pre-emergence, visual rating 0-100, 0 no effect, 100 complete control, read-out: Plant response rating, Barnyardgrass): 0%
pest or weed control at 125 g/ha (barnyardgrass; pre-emergence, preemergence, 0 to 100 scale, 0 is no effect, 100 is complete control, read-out: Plant response rating, Barnyardgrass): 0%
pest or weed control at 125 g/ha (Surinam grass; [8]): 10%
pest or weed control at 500 g/ha (Surinam grass; [8]): 10%
pest or weed control at 500 g/ha (Surinam grass; pre-emergence, visual rating 0-100, 0 no effect, 100 complete control, read-out: Plant response rating, Surinam Grass): 0%
pest or weed control at 125 g/ha (Surinam grass; pre-emergence, preemergence, 0 to 100 scale, 0 is no effect, 100 is complete control, read-out: Plant response rating, Surinam Grass): 0%
pest or weed control at 125 g/ha (wild oat; 125 g ai/ha): 0%
pest or weed control at 500 g/ha (wild oat; 500 g ai/ha): 20%
pest or weed control at 125 g/ha (velvetleaf; [9]): 0%
pest or weed control at 500 g/ha (velvetleaf; [9]): 20%
pest or weed control at 500 g/ha (velvetleaf; pre-emergence, visual rating 0-100, 0 no effect, 100 complete control, read-out: Plant response rating, Velvetleaf): 0%
pest or weed control at 125 g/ha (velvetleaf; pre-emergence, preemergence, 0 to 100 scale, 0 is no effect, 100 is complete control, read-out: Plant response rating, Velvetleaf): 0%
pest or weed control at 125 g/ha (blackgrass; 125 g ai/ha): 0%
pest or weed control at 500 g/ha (blackgrass; 500 g ai/ha): 0%
